Experimental findings from ChEMBL document CHEMBL5608113, “Targeting of CAF-induced therapy resistance in CRC organoid-stroma co-cultures” (2024) are described below.

Holding throughout (assay type): functional, Homo sapiens
Common to all, as to conditions: Homo sapiens, Concentration 10 uM; read-out: Cell Viability

The test system of assay [1] is Colon cancer organoid. Kind of assay: Targeting of F14 CAF-induced therapy resistance in O14 CRC organoid-stroma co-culture. Cell viability is reported without Gefitinib.
The test system of assay [2] is Colon cancer organoid. The assay is described as follows: Targeting of F14 CAF-induced therapy resistance in O14 CRC organoid-stroma co-culture. Cell viability is reported with Gefitinib.
Assay [3] deals with Colon cancer organoid. The assay is described as follows: Targeting of F14 CAF-induced therapy resistance in O23 CRC organoid-stroma co-culture. Cell viability is reported without Gefitinib.
For assay [4], the system named is Colon cancer organoid. Kind of assay: Targeting of F14 CAF-induced therapy resistance in O23 CRC organoid-stroma co-culture. Cell viability is reported with Gefitinib.
The test system of assay [5] is Colon cancer organoid. Kind of assay: Targeting of F14 CAF-induced therapy resistance in O23 CRC organoid-stroma co-culture. Cell viability is reported with SN-38.

Consider `Cc1cc(C)cc(C(=O)NOCCCCCC(=O)NO)c1`, for which the viability (commonly a read-out of living cells in per cent, often relative to untreated cells) at 10 µM in assay [1] was determined as 28.3%; in assay [2], 31.1%; in assay [3], 193%; in assay [4], 220%; in assay [5], 130%.

On to `Cc1cc(=O)n(C)c2cc(N3C(=O)CC[C@H](NS(=O)(=O)CC(C)C)[C@H]3c3ccc(Cl)cc3)ccc12`, for which the viability at 10 µM in assay [1] was determined as 75.8%; in assay [2] it was 72.6%; in assay [3], 144%; in assay [4] it was 66%; in assay [5] it was 81.7%.

As to `CCc1cc2cc(NS(=O)(=O)c3ccc(C#N)cc3)ccc2n(CC)c1=O`, the viability at 10 µM is 106% in assay [1]; 84% in assay [2]; 127% in assay [3]; 73.6% in assay [4]; 88.2% in assay [5].

As for `CN(C)CCCOc1ccc(-c2cc(NCCCn3cccn3)nc(S(C)(=O)=O)n2)cc1`, the viability at 10 µM was 100% in assay [1]; 65.9% in assay [2]; 0.601% in assay [3]; 1.76% in assay [4]; 1.65% in assay [5].

On to `CNCCN1CCC(c2cc(CN(C)C(=O)c3cccc(Oc4ccccc4)c3)ccn2)CC1`, for which the viability at 10 µM in assay [1] was determined as 80.6%; in assay [2] it was 40.3%; in assay [3] it was 118%; in assay [4], 71.9%; in assay [5] it was 84.5%.

On to `Cc1cc(C)cc([C@@H]2c3cc(C)ccc3NC(=O)CN2C(=O)c2ccc(Br)s2)c1`, for which the viability at 10 µM was determined as 85.7% in assay [1]; 78.3% in assay [2]; 110% in assay [3]; 76% in assay [4]; 82.1% in assay [5].

`Cc1cc(C)cc([C@H]2c3cc(C)ccc3NC(=O)CN2C(=O)c2ccc(Br)s2)c1`: the viability at 10 µM in assay [1] amounted to 96.4%; in assay [2], 63.7%; in assay [3], 84.3%; in assay [4], 63.4%; in assay [5], 86.1%.

As to `CC1=C(C)C(=O)C(C(C)(C)CC(=O)N(CCCCSC[C@H]2O[C@@H](n3cnc4c(N)ncnc43)[C@@H]3OC(C)(C)O[C@@H]32)Cc2cccc(-c3ccc(Cl)cc3)c2)=C(C)C1=O`, the viability at 10 µM in assay [1] came out at 121%; in assay [2], 66.1%; in assay [3] it was 8.34%; in assay [4] it was 7.29%; in assay [5], 9.16%.

In the case of `COCCN1CCC(c2cc(CN(C)C(=O)c3cccc(Oc4ccccc4)c3)ccn2)CC1`, the viability at 10 µM came out at 67.2% in assay [1]; 65.6% in assay [2]; 46.6% in assay [3]; 27.5% in assay [4]; 34% in assay [5].

`CC(=O)c1cc(-c2ccccc2OCC2CC2)c2ncccn12`: the viability at 10 µM in assay [1] was 80.2%; in assay [2], 73.2%; in assay [3], 142%; in assay [4], 76.3%; in assay [5], 102%.

On to `CN(C)C(=O)N1CC[C@H](NC2=Nc3cc(F)ccc3N(CC(F)F)c3ccc(Cl)cc32)C1`, for which the viability at 10 µM in assay [1] amounted to 87.4%; in assay [2], 61.6%; in assay [3] it was 102%; in assay [4] it was 43.7%; in assay [5], 75.2%.

In the case of `CC1=C(C)C(=O)C(C(C)(C)CC(=O)N(CCCCSC[C@H]2O[C@@H](n3cnc4c(N)ncnc43)[C@H](O)[C@@H]2O)Cc2cccc(-c3ccc(Cl)cc3)c2)=C(C)C1=O`, the viability at 10 µM was 89.1% in assay [1]; 59.5% in assay [2]; 92.3% in assay [3]; 57.2% in assay [4]; 69.9% in assay [5].

As to `CC(C)Oc1ccc(-c2c[nH]cc2CN(C)CCO)cc1`, the viability at 10 µM in assay [1] came out at 72%; in assay [2], 58.5%; in assay [3], 129%; in assay [4], 90.2%; in assay [5] it was 80.1%.
